Experimental data from ChEMBL document CHEMBL6127087 (Eur J Med Chem, 2024).
Calls of active or inactive are those of the source. The rule behind the calls is not given here.

Key:
Mus musculus [1] = assay: Anti-inflammatory activity in LPS-induced male C57BL/6 mouse model of acute […] injury assessed as intact appearance of alveolar structure in lung at 2 to 6 mg/kg, IG preadministered with compound for 7 days followed by LPS administration and measured after 24 hrs by H and E staining based histopathological analysis; format: functional, organism-based; details: dose 2-6 mg/kg, time 8.0 day
Mus musculus [2] = assay: Anti-inflammatory activity in LPS-induced male C57BL/6 mouse model of acute […] injury assessed as reduction in lung permeability by measuring tight junction associated proteins at 2 to 6 mg/kg, IG preadministered with compound for 7 days followed by LPS administration and measured after 24 hrs by immunofluorescence analysis; format: functional, organism-based; details: dose 2-6 mg/kg, time 8.0 day

O=C(O)CCC(=O)N1N=C(c2ccc[nH]2)CC1c1cnc2ccccc2c1 (configuration not stated)
Activity (Mus musculus [1]): Active | Activity (Mus musculus [2]): Active
